# Test: Luminescence quantum yield of luminescent particles (melamine resin particles, aqueous dispersion)
# Type: physicochemical
# Conditions: luminescent particle, concentration of the dye in the particle 20%, absolute fluorescence quantum yield
# Description: The synthesized luminescent compound (Exemplary Compound 1-1) according to one or more embodiments of the present invention was added to 22 mL of water and dissolved. Thereafter, 2 mL of a 5% aqueous solution of Emulsion® 430 (polyoxyethyleneoleyl ether, manufactured by Kao Corporation), an emulsifier for emulsion polymerization, was added to the solution. After the solution was heated to 70° C. with stirring on a hot stirrer, 0.65 g of NIKALAC MX-035 (manufactured by Nippon Carbide Industries Co., Inc.), a melamine resin raw material, was added thereto. […]
# Specifically, centrifugation was performed for 15 minutes at 20000 G using a centrifuge (Micro Refrigerated Centrifuge Model 3740 manufactured by Kubota Corporation), the supernatant was removed, ultrapure water was added thereto, ultrasonic irradiation was performed, and redispersion was performed. […] The absolute fluorescence quantum yield of the obtained aqueous dispersion of the fluorescent particles was measured using the fluorescence quantum yield measuring device (C11347-01, manufactured by Hamamatsu Photonics K.K), and this was taken as the luminescence quantum yield of the luminescent particles.
# With respect to the above-described Comparative Compound 1 and Comparative Compound 2, preparation of luminescent particles and measurement of the luminescence quantum yield were performed in the same manner. […]
smiles,measurement,value
CC(C)c1cccc(C(C)C)c1N1C(=O)c2cc(Oc3ccc(S(=O)(=O)O)cc3-c3ccccc3)c3c4c(Oc5ccc(S(=O)(=O)O)cc5-c5ccccc5)cc5c6c(cc(Oc7ccc(S(=O)(=O)O)cc7-c7ccccc7)c(c7c(Oc8ccc(S(=O)(=O)O)cc8-c8ccccc8)cc(c2c37)C1=O)c64)C(=O)N(c1c(C(C)C)cccc1C(C)C)C5=O [Comparative Compound 2],Luminescence Quantum Yield,9%
CC(C)c1cccc(C(C)C)c1N1C(=O)c2cc(Oc3ccc(S(=O)(=O)O)cc3)c3c4c(Oc5ccc(S(=O)(=O)O)cc5)cc5c6c(cc(Oc7ccc(S(=O)(=O)O)cc7)c(c7c(Oc8ccc(S(=O)(=O)O)cc8)cc(c2c37)C1=O)c64)C(=O)N(c1c(C(C)C)cccc1C(C)C)C5=O [Comparative Compound 1],Luminescence Quantum Yield,10%

# Reference: US12606739B2, “Luminescent compound, method for producing luminescent compound, luminescent composition, luminescent thin film and luminescent particles” (KONICA MINOLTA, INC., priority 2020, dated 2026)
